We go through seven compounds from ChEMBL document CHEMBL3784981, “Anti-inflammatory, analgesic and antioxidant activities of novel kyotorphin-nitroxide hybrid molecules” (Bioorg Med Chem Lett, 2016).

The nature of assay [1]: Antioxidant activity in sodium nitroprusside-stimulated rat PC12 cells assessed as NO radical scavenging activity measured as cell survival preincubated with compound for 1 hr followed by addition of sodium nitroprusside for 2 measured after 14 hrs by MTT assay. In kind it is functional, cell-based. The conditions noted are these: pc-12.
In assay [2] the test system is Mus musculus. Nature of the assay: Analgesic activity in ICR mouse assessed as pain threshold at 0.1 umol/kg administered through oral gavage after 90 mins by tail flick method. In kind it is functional.
Assay [3] has as its system Mus musculus. Nature of the assay: Analgesic activity in ICR mouse assessed as pain threshold at 0.1 umol/kg administered through oral gavage after 150 mins by tail flick method. In kind it is functional.
Assay [4] can be described thus: Antioxidant activity in rat PC12 cells assessed as H2O2 radical scavenging activity measured as cell survival preincubated with compound for 1 hr measured after 14 hrs by MTT assay. The conditions noted are these: pc-12. In kind it is functional, cell-based.
For assay [5], the system named is Mus musculus. Nature of the assay: Antiinflammatory activity in ICR mouse assessed as inhibition of xylene-induced ear edema at 0.1 umol/kg, po administered 30 mins prior to xylene challenge measured after 2hrs. In kind it is functional.
Assay [6] is described as follows: Antioxidant activity in H2O2/Fe(II)-stimulated rat PC12 cells assessed as OH radical scavenging activity measured by cell survival preincubated with compound for 1 hr measured after 14 hrs by MTT assay. The conditions noted are these: pc-12. In kind it is functional, cell-based.
Assay [7] concerns Mus musculus. Description: Analgesic activity in ICR mouse assessed as pain threshold at 0.1 umol/kg administered through oral gavage after 30 mins by tail flick method. In kind it is functional.
Assay [8] relates to Mus musculus. Nature of the assay: Analgesic activity in ICR mouse assessed as pain threshold at 0.1 umol/kg administered through oral gavage after 60 mins by tail flick method. In kind it is functional.
Assay [9] deals with Mus musculus. Description: Analgesic activity in ICR mouse assessed as pain threshold at 0.1 umol/kg administered through oral gavage after 120 mins by tail flick method. In kind it is functional.
The subject of assay [10] is Mus musculus. Description: Analgesic activity in ICR mouse assessed as pain threshold at 0.1 umol/kg administered through oral gavage after 180 mins by tail flick method. In kind it is functional.

As for `CC1(C)N([O])C(c2ccc(OCC(=O)N[C@@H](Cc3ccc(O)cc3)C(=O)N[C@@H](CCCNC(=N)N)C(=O)O)cc2)=[N+]([O-])C1(C)C`, the EC50 worked out at 8.1 µM in assay [1], 31.3 µM in assay [4] and 22.7 µM in assay [6]. Further, the Activity is given as 31.45% with Mus musculus [2]; 34.14% with Mus musculus [3]; 12.53% with Mus musculus [7]; 18.66% with Mus musculus [8]; 40.01% with Mus musculus [9]; 14.45% in the assay with Mus musculus [10]. In the assay on Mus musculus [5], the “inhibition (INH)” value came out at 40.86%.

As to `CCc1cc(O)ccc1C[C@H](NC(=O)COc1ccc(C2=[N+]([O-])C(C)(C)C(C)(C)N2[O])cc1)C(=O)N[C@@H](CCCNC(=N)N)C(=O)O`, the EC50 in [1] came to 8.1 µM; in assay [4], 31.3 µM; in [6], 22.7 µM. In addition, the Activity in the assay with Mus musculus [2] is on record as 21.89%; in the assay on Mus musculus [3], 22.34%; in the assay with Mus musculus [7], 10.78%; with Mus musculus [8], 17.31%; with Mus musculus [9] it was 22.78%; in the assay on Mus musculus [10], 15.04%. In addition, the “inhibition (INH)” value in the assay with Mus musculus [5] turned out to be 30.26%.

Regarding `CC1(C)N([O])C(c2ccc(OCC(=O)N[C@@H](Cc3ccc(O)c(CO)c3)C(=O)N[C@@H](CCCNC(=N)N)C(=O)O)cc2)=[N+]([O-])C1(C)C`, the EC50 in assay [1] was determined as 8.1 µM; in [4] it was 31.3 µM; in [6], 22.7 µM. Besides, the Activity in the assay on Mus musculus [2] amounted to 22.37%; in the assay with Mus musculus [3], 33.56%; in the assay with Mus musculus [7] it was 12.12%; in the assay on Mus musculus [8] it was 19.13%; in the assay on Mus musculus [9] it was 25.78%; in the assay on Mus musculus [10] it was 20.14%. Besides, the “inhibition (INH)” value in the assay on Mus musculus [5] amounted to 31.23%.

For `COc1cc(O)ccc1C[C@H](NC(=O)COc1ccc(C2=[N+]([O-])C(C)(C)C(C)(C)N2[O])cc1)C(=O)N[C@@H](CCCNC(=N)N)C(=O)O`, the EC50 is 8.1 µM in assay [1], 31.3 µM in [4] and 22.7 µM in assay [6]. The Activity with Mus musculus [2] amounted to 22.47%; with Mus musculus [3], 24.12%; in the assay on Mus musculus [7] it was 11.37%; with Mus musculus [8], 16.33%; in the assay on Mus musculus [9], 27.14%; in the assay on Mus musculus [10] it was 11.24%. Moreover, in the assay with Mus musculus [5], the “inhibition (INH)” value amounted to 29.27%.

As for `CC1(C)N([O])C(c2ccc(OCC(=O)N[C@@H](Cc3ccc(O)cc3)C(=O)N[C@@H](CCCCN)C(=O)O)cc2)=[N+]([O-])C1(C)C`, the EC50 in assay [1] is 8.1 µM; in [4], 31.3 µM; in assay [6], 22.7 µM. For the same compound, the Activity in the assay with Mus musculus [2] worked out at 29.31%; in the assay with Mus musculus [3], 33.73%; in the assay with Mus musculus [7] it was 12.56%; with Mus musculus [8] it was 19.35%; in the assay with Mus musculus [9], 38.33%; in the assay on Mus musculus [10], 13.58%. Also, in the assay with Mus musculus [5], the “inhibition (INH)” value is given as 36.94%.

In the case of `Cc1cc(C[C@H](NC(=O)COc2ccc(C3=[N+]([O-])C(C)(C)C(C)(C)N3[O])cc2)C(=O)N[C@@H](CCCNC(=N)N)C(=O)O)ccc1O`, the EC50 in [1] worked out at 8.1 µM; in assay [4] it was 31.3 µM; in [6] it was 22.7 µM. The Activity in the assay on Mus musculus [2] is 22.1%; with Mus musculus [3], 13.25%; with Mus musculus [7], 10.24%; in the assay with Mus musculus [8], 18.97%; in the assay on Mus musculus [9], 31.21%; with Mus musculus [10] it was 12.38%. Further, the “inhibition (INH)” value in the assay on Mus musculus [5] is given as 29.47%.

`CC1(C)N([O])C(c2ccc(OCC(=O)N[C@@H](CCCNC(=N)N)C(=O)N[C@@H](Cc3ccc(O)cc3)C(=O)O)cc2)=[N+]([O-])C1(C)C`: the EC50 came out at 8.1 µM in assay [1], 31.3 µM in assay [4] and 22.7 µM in assay [6]. The Activity in the assay with Mus musculus [2] was 26.97%; in the assay with Mus musculus [3], 11.91%; in the assay on Mus musculus [7], 10.1%; in the assay with Mus musculus [8], 14.31%; with Mus musculus [9] it was 13.18%; in the assay on Mus musculus [10] it was 10.05%. For the same compound, the “inhibition (INH)” value in the assay with Mus musculus [5] came out at 28.29%.
